Assay results taken from ChEMBL document CHEMBL1152241, “Synthesis and recovery of high bioactive phenolics from table-olive brine process wastewater” (Bioorg Med Chem, 2008).
≈ marks a conversion by molar mass, not a printed value. Calls of active or inactive are those of the source. No cut-off for these calls is given here.

Columns and labels:
DG-75 [1] = assay: Cytotoxicity against human DG75 cells after 48 hrs by MTT assay; format: functional, cell-based; conditions: for IC50: DG-75, 48 h
HeLa [2] = assay: Cytotoxicity against human HeLa cells after 48 hrs by MTT assay; format: functional, cell-based
Pseudomonas aeruginosa = assay: Antibacterial activity against Pseudomonas aeruginosa ATCC 15442 after 24 to 72 hrs at 30 degC by broth dilution susceptibility test; format: functional
Escherichia coli = assay: Antibacterial activity against Escherichia coli ATCC 10536 after 24 to 72 hrs at 37 degC by broth dilution susceptibility test; format: functional
Bacillus subtilis = assay: Antibacterial activity against Bacillus subtilis ATCC 6633 after 24 to 72 hrs at 30 degC by broth dilution susceptibility test; format: functional
Aspergillus niger = assay: Antifungal activity against Aspergillus niger ATCC 16404 after 24 to 72 hrs at 28 degC by broth dilution susceptibility test; format: functional
Salmonella enterica = assay: Antibacterial activity against Salmonella enterica CIP 80.39 after 24 to 72 hrs at 37 degC by broth dilution susceptibility test; format: functional
[3] = test system: Radical scavenging activity; assay: Antioxidant activity assessed as DPPH radical scavenging activity after 30 mins; format: functional
Candida albicans = assay: Antifungal activity against Candida albicans ATCC 10231 after 24 to 72 hrs at 28 degC by broth dilution susceptibility test; format: functional
[4] = Antioxidant activity assessed as trolox equivalent of ABTS radical scavenging activity; format: functional
PBL = assay: Cytotoxicity against human PBL after 48 hrs by MTT assay; format: cell-based
[5] = Antioxidant activity assessed as ferric ion reducing activity by FRAP assay; format: functional
DG-75 [6] = assay: Antioxidant activity against ferrous ion-induced oxidative stress in human DG75 cells assessed as decrease in malondialdehyde formation at 10 ug/mL pretreated for 4 hrs before Fe2+ challenge by TBARS assay; format: functional, cell-based
DG-75 [7] = assay: Antioxidant activity against ferrous ion-induced oxidative stress in human DG75 cells assessed as decrease in malondialdehyde formation at 20 ug/mL pretreated for 4 hrs before Fe2+ challenge by TBARS assay; format: functional, cell-based
HeLa [8] = assay: Antioxidant activity against ferrous ion-induced oxidative stress in human HeLa cells assessed as decrease in malondialdehyde formation at 20 ug/mL pretreated for 4 hrs before Fe2+ challenge by TBARS assay; format: functional, cell-based
HeLa [9] = assay: Antioxidant activity against ferrous ion-induced oxidative stress in human HeLa cells assessed as decrease in malondialdehyde formation at 10 ug/mL pretreated for 4 hrs before Fe2+ challenge by TBARS assay; format: functional, cell-based
Staphylococcus aureus = assay: Antibacterial activity against Staphylococcus aureus ATCC 9144 after 24 to 72 hrs at 37 degC by broth dilution susceptibility test; format: functional

Row | Compound | Activity (DG-75 [1]) | IC50 (DG-75 [1]) [µg/mL] | Activity (HeLa [2]) | IC50 (HeLa [2]) [µg/mL] | MIC (Pseudomonas aeruginosa) [µg/mL] | MIC (Escherichia coli) [µg/mL] | MIC (Bacillus subtilis) [µg/mL] | MIC (Aspergillus niger) [µg/mL] | MIC (Salmonella enterica) [µg/mL] | Activity [3] | MIC (Candida albicans) [µg/mL] | Activity [4] | Activity (PBL) | Activity [5] | IC50 [3] [µg/mL] | Activity (DG-75 [6]) | Activity (DG-75 [7]) | Activity (HeLa [8]) | Activity (HeLa [9]) | MIC (Staphylococcus aureus) [µg/mL]
1 | CC(=O)OCCc1ccc(OC(C)=O)c(OC(C)=O)c1 | Dose-dependent effect | 27 (≈ 96.3 µM) | Dose-dependent effect | 92 (≈ 328 µM) | 250 (≈ 892 µM) | 250 (≈ 892 µM) | 125 (≈ 446 µM) | 500 (≈ 1780 µM) | 250 (≈ 892 µM) | inactive | 500 (≈ 1780 µM) | inactive | Not Active | inactive |  |  |  |  |  | 
2 | Cc1cc(C(C)(C)C)c(O)c(C(C)(C)C)c1 [BUTYLATED HYDROXYTOLUENE] |  |  |  |  |  |  |  |  |  |  |  | 2.37 mmol |  |  | 7.94 (≈ 36 µM) |  |  |  |  | 
3 | OCCc1ccc(O)c(O)c1 [HYDROXYTYROSOL] | Dose-dependent effect | 58 (≈ 376 µM) | Dose-dependent effect | 70 (≈ 454 µM) | 125 (≈ 811 µM) | 125 (≈ 811 µM) | 62.5 (≈ 405 µM) | 250 (≈ 1620 µM) | 125 (≈ 811 µM) |  | 125 (≈ 811 µM) | 3.4 mmol | Not Active | Active | 3.71 (≈ 24.1 µM) | Active | Active | Active | Active | 62.5 (≈ 405 µM)
